In US20070021421A1 (priority 2005, published 2007):
“Also recorded” adds a separate entry of the source. Where two headings read alike, the source gives them in different places.

Assays:
ALS patients = conditions: cited from earlier work
C57BL/6J mice = system: C57BL/6J mice
Text: Since PD, HD, and ALS share aspects of pathogenesis and pathology of motor dysfunction, gait dynamics were also studied in the SOD1 G93A transgenic mouse model of ALS (Gurney et al. Science 1994, 264: 1772-1775) to compare gait variability in mouse models of basal ganglia disease to a mouse model of motor neuron disease. Male C57BL/6J mice (7-8 weeks; ˜22 gm) were purchased from The Jackson Laboratory (Bar Harbor, Me.). Mice transgenic for the mutated human SOD1 G93A (TgN[SOD1-G93A]lGur) (SOD1 G93A) and wild-type human SOD1 (TgN[SOD1]2Gur) (wild-type controls) were purchased from The Jackson Laboratory (Bar Harbor, ME) when the mice were ˜7.5 weeks old. Animals were maintained on a 12-hour light: 12-hour dark schedule with ad libitum access to food and water. Handling and care of mice were consistent with federal guidelines and approved institutional protocols.
MPTP. A mouse model of PD was generated in the following manner. The dopaminergic neurotoxin 1-methyl-4-phenyl-1,2,3,6-tetrahydropyridine (MPTP) (Sigma-Aldrich, St. Louis, Mo.) was dissolved in saline and was administered 30 mg/kg i.p. to 7 mice every 24 hours for 3 days (MPTP-treated mice), based on previously published studies (Colotla et al. Neurotoxicol Teratol 1990, 12: 405-407; Shimoji et al. Brain Res Mol Brain Res 2005, 134:103-108). Equivolume (0.2 ml) of saline was administered i.p. to 7 control mice every 24 hours for 3 days (saline-treated mice).
3NP. A mouse model of HD was generated in the following manner. The mitochondrial toxin 3-nitropropionic acid (3NP) (Sigma-Aldrich, St. Louis, Mo.) was dissolved in saline and was administered 3 times to 6 mice: 25 mg/kg i.p. twice, separated by 12 hours (cumulative dose of 50 mg/kg), then 25 mg/kg 24 hours later (cumulative dose of 75 mg/kg) (3NP-treated mice). Equivolume (0.2 ml) of saline was administered i.p. according to the same schedule to 6 control mice.
(§1) Gait dynamics were recorded using ventral plane videography, as previously described (Kale et al. Alcohol Clin Exp Res 2004, 28: 1839-1848; Hampton et al. Physiol Behav 2004, 82: 381-389). Briefly, a motor-driven treadmill with a transparent treadmill belt was built. A high-speed digital video camera was mounted below the transparent treadmill belt. An acrylic compartment, ˜5 cm wide by ˜25 cm long, the length of which was adjustable, was mounted on top of the treadmill to maintain the mouse that was walking on the treadmill belt within the view of the camera. Digital video images of the underside of mice were collected at 80 frames per second. Accordingly, each image obtained represented a 12.5 ms time interval; and the paw area of each image indicated the temporal placement of the paw relative to the treadmill belt. The color images were converted to their binary matrix equivalents, and the areas (in pixels) of the approaching or retreating paws relative to the belt and camera were calculated throughout each stride. Plotting the area of each digital paw print (paw contact area) imaged sequentially in time provided a dynamic gait signal, representing the temporal record of paw placement relative to the treadmill belt (refer to FIGS. 1A and 1B). From these digital paw print images, indices of gait and gait variability were determined. Each gait signal for each limb comprised a stride duration (stride time), which included the stance duration when the paw of a limb was in contact with the walking surface, plus the swing duration when the paw of the same limb was not in contact with the walking surface. Stance duration was further subdivided into braking duration (increasing paw contact area over time) and propulsion duration (decreasing paw contact area over time) (refer to FIG. 1B).
Stride frequency was calculated by counting the number of gait signals over time. Stride length was calculated from the equation: speed=stride frequency X stride length.

rats = conditions: MPTP 3 mg/kg; rats (Tsai et al.); cited from earlier work
mice = conditions: cited from earlier work
SOD1 G93A mice = experiment: Propranolol in drinking water of the SOD1 G93A mouse model of ALS (gait, walking ability, survival, body weight); format: in vivo
Text: as §1, with “Briefly,” for “Gait dynamics were recorded using ventral plane videography, as previously described (Kale et al. Alcohol Clin Exp Res 2004, 28: 1839-1848; Hampton et al. Physiol Behav 2004, 82: 381-389). Briefly,”, “Accordingly, each image obtained represented a 12.5 ms time interval; and the paw area of each image indicated the temporal placement of the paw relative to the treadmill belt.” left out
Stride frequency was calculated by counting the number of gait signals over time. Stride length was calculated from the equation: speed=stride frequency X stride length. To obtain stance widths and paw placement angles at full stance, ellipses were fitted to the paws, and the centers, vertices, and major axes of the ellipses were determined. Forelimb and hind limb stance widths were calculated as the perpendicular distance between the major axes of the left and right paw images during peak stance. Gait data were collected and pooled from both the left and right forelimbs, and the left and right hind limbs.
Accordingly, five SOD1 G93A mice were treated with propranolol, the drug having been added to their drinking water beginning at six weeks of age.

[1] = MPTP 90 mg/kg cumulative dose, 34 cm/s
[2] = MPTP after 3 treatments, 34 cm/s
[3] = MPTP, 3 administrations of 30 mg/kg, 34 cm/s
[4] = 3NP 75 mg/kg cumulative dose, 34 cm/s, n=3
[5] = 3NP 75 mg/kg cumulative dose, mice that could walk
[6] = 3NP 75 mg/kg cumulative, two mice with hind limb gait failure, forelimb stepping only
[7] = after 2nd administration of 3NP (50 mg/kg cumulative)
[8] = cumulative dose of 560 mg/kg of 3NP

Compound: Nc1nc2ccc(OC(F)(F)F)cc2s1 [Riluzole]
- side effects (ALS patients): causes liver damage

Compound: CN1CC=C(c2ccccc2)CC1 [MPTP, 1-methyl-4-phenyl-1,2,3,6-tetrahydropyridine]
- Forelimb Paw Placement Angle (C57BL/6J mice; [1]): 2.6 ± 0.4 °
- Forelimb Stance Width (C57BL/6J mice; [1]): 1.6 ± 0.1 cm
- Hind limb Paw Placement Angle (C57BL/6J mice; [1]): 10.8 ± 1.3 °
- Hind limb Stance Width (C57BL/6J mice; [1]): 2.2 ± 0.1 cm
- Stride Duration (C57BL/6J mice; MPTP 90 mg/kg cumulative dose, 34 cm/s, n=7): 194 ± 1 ms
- % Stance Duration (C57BL/6J mice; MPTP 90 mg/kg cumulative dose, 34 cm/s, stance/stride): 55.9 ± 1.1%
- % Swing Duration (C57BL/6J mice; MPTP 90 mg/kg cumulative dose, 34 cm/s, swing/stride): 44.1 ± 1.1%
- CV of forelimb stance width (C57BL/6J mice; [2]): 16.7±1.3%
- CV of hind limb stance width (C57BL/6J mice; [2]): 9.1±1.1%
- Stance width variability of the forelimbs (C57BL/6J mice; [2]): 0.26±0.01 cm
- Stance width variability of the hind limbs (C57BL/6J mice; [2]): 0.20±0.02 cm
- coefficient of variation (CV) of forelimb stride length (C57BL/6J mice; [2]): 13.6±0.8%
- CV of hind limb stride length (C57BL/6J mice; MPTP after 3 treatments, 34 cm/s, NS vs saline): 10.0±1.5%
- Stride length variability of the forelimbs (C57BL/6J mice; MPTP after 3 treatments, standard deviation, 34 cm/s): 0.91±0.04 cm
- Stride length variability of the hind limbs (C57BL/6J mice; MPTP after 3 treatments, vs saline-treated mice): not different
- stance duration of the forelimbs (C57BL/6J mice; [3]): 116 ± 2 ms
- swing duration of the hind limbs (C57BL/6J mice; [3]): 92 ± 3 ms
- stride length (rats): significantly reduce stride length

Compound: O=C(O)CC[N+](=O)[O-] [3NP, 3-nitropropionic acid]
- stride length (C57BL/6J mice; 3NP 75 mg/kg cumulative dose i.p., 34 cm/s, n=3 mice that could walk): 7.3 ± 0.1 cm
- % Stance Duration (C57BL/6J mice; [4]): 59.4±2.3%
- % Swing Duration (C57BL/6J mice; [4]): 40.6±2.3%
- Forelimb Paw Placement Angle (C57BL/6J mice; [4]): 3.5 ± 1.1 °
- Forelimb Stance Width (C57BL/6J mice; [4]): 1.7 ± 0.1 cm
- Hind limb Paw Placement Angle (C57BL/6J mice; [4]): 15.2±1.0 °
- Hind limb Stance Width (C57BL/6J mice; [4]): 2.8±0.2 cm
- Stride Duration (C57BL/6J mice; [4]): 217 ± 5 ms
- Stride Frequency (C57BL/6J mice; [4]): 4.9 ± 0.1 Hz
- percentage of stance duration spent in propulsion (propulsion/stance) of the hind limbs (C57BL/6J mice; [4]): 45.2±2.5%
- CV of forelimb stance width (C57BL/6J mice; [5]): 17.3±2.4%
- CV of forelimb stride length (C57BL/6J mice; [5]): 17.9±1.6%
- Stance width variability of the forelimbs (C57BL/6J mice; [5]): 0.31±0.04 cm
- Hind limb stride length variability and hind limb stance width variability (C57BL/6J mice; 3NP 75 mg/kg cumulative dose, mice that could walk, vs saline-treated mice): not different
- Stride length variability of the forelimbs (C57BL/6J mice; 3NP 75 mg/kg cumulative dose, three mice that could walk): 1.31±0.09 cm
- stance duration (forelimbs) (C57BL/6J mice; [6]): 133 ± 5 ms
- stride frequency (forelimbs) (C57BL/6J mice; [6]): 5.0±0.1 Hz
- stride length of forelimbs (C57BL/6J mice; [6]): 7.1±0.1 cm
- Stride length, stride frequency, stance duration, and swing duration (C57BL/6J mice; after 1st and 2nd administrations of 25 mg/kg 3NP): not affected
- CV of forelimb stance width (C57BL/6J mice; [7]): 15.0±1.2%
- Stance width variability of the forelimbs (C57BL/6J mice; [7]): 0.28±0.01 cm
- stride length variability and stance width variability of the hind limbs (C57BL/6J mice; [7]): Neither stride length variability nor stance width variability of the hind limbs was affected
- paw placement angle of the hind limbs (C57BL/6J mice; after 2nd administration of 3NP (cumulative dose of 50 mg/kg), n=6): 16.6±1.2 °
- 3NP-treated mice that could not walk on the treadmill belt (C57BL/6J mice; after 3rd administration (75 mg/kg cumulative dose), 34 cm/s, 6 mice): half
- effect of aggressive doses (C57BL/6J mice; aggressive (higher) doses of 3NP, data not shown): high mortality or the inability of the mice to walk at all on the treadmill belt
- forelimb stride length (mice; [8]): comparable to saline-treated mice
- hind limb stride length (mice; [8]): shortened
- stride length of forelimbs and hind limbs (mice; cumulative dose of 3NP 340 mg/kg): no differences

Compound: CC(C)NCC(O)COc1cccc2ccccc12 (centres unmarked) [propranolol]
- increase in paw placement angle variability with disease progression (SOD1 G93A mice; age 12 weeks through 18 weeks): blunted or prevented; also recorded: prevented or diminished
- extent of gait disturbances (SOD1 G93A mice; propranolol in drinking water from age ~42 days, five mice): mitigated and delayed
- stride length (SOD1 G93A mice; propranolol in drinking water, vs longer strides with untreated tap water): more normal
- body weight (SOD1 G93A mice; relative to tap water-treated control mice, FIG. 8): reduction in body weight
- mice that could successfully walk on a moving treadmill belt (SOD1 G93A mice; ~16 weeks of age, tap water controls one out of five): three out of five
- mice surviving (SOD1 G93A mice; ~age 17 weeks, five mice per group, tap water controls one): 3
